Reference: patent US9315451B2, “Tetracycline compounds” (priority 2009, dated 2016)
Read-outs that look alike come from different tables or passages of the source.

Assays:
Format in all cases: in vivo
[1] = tested on: S. aureus Smith (ATCC 13709); test: Mouse systemic infection (septicemia) model, S. aureus Smith; settings: Staphylococcus aureus, CD-1 female mice; for responders at 3 mg/kg: ATCC13709, iv, IV 3 mg/kg one hour post infection, read-out: SA Smith septicemia survival IV (3 mg/kg); for responders at 3 mg/kg / responders at 30 mg/kg: 48 h, survival at 48 hours; for responders at 30 mg/kg: ATCC13709, po, PO 30 mg/kg one hour post infection, read-out: SA Smith septicemia survival PO (30 mg/kg); for ED50: ATCC13709, dose that prevents 50% of the mice from death, 48 hours
How it was run: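 Female CD-1 mice (18-22 g) infected IP with an inoculum lethal to all within 24–48 h. Compound given 1 h post-infection IV ([…]) or PO ([…]), typically six mice per dose group; survival followed for 48 h and PD50 (mg/kg) derived from 48 h survival.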

[2] = Pharmacokinetic studies in rats; settings: male Sprague Dawley rats; for clearance / bioavailability / AUC / Cmax: rat, plasma, fasted; for clearance: read-out: Cl, IV Rat PK; for bioavailability: oral 10 mg/kg vs IV 1 mg/kg, read-out: % F (oral bioavailability), Oral Rat PK; for Cmax: read-out: Cmax, IV Rat PK
Experimental: Pharmacokinetic Studies in Rats Test compounds were evaluated in fasted (no food for 18 hours prior to dosing) male Sprague Dawley rats (3 animals per group) by administration of 1 mg/kg intravenously into the jugular vein and […] by oral gavage. Ten plasma samples were drawn for each dosing route up to 24 hours into heparin-coated vacutainer tubes. The plasma concentrations of the test compounds were quantified by LC/MS/MS using an internal standards. WinNONLIN was used to determine PK parameters ±standard deviation (AUC, Cmax, CL, Vss and % oral bioavailabilty (% F) and are set forth in Table F.

[3] = tested on: S. aureus ATCC 13709; test: Neutropenic thigh model; settings: neutropenic female CD-1 mice, IV, doses ranging 0.3 to 30 or 0.3 to 20 mg/kg, 24 hours post treatment
Experimental: Neutropenic Thigh Model Female CD-1 mice were pre-treated with cyclophosphamide to render the mice neutropenic. Mice were infected with S. aureus ATCC 13709 via injection of 0.1 ml into the right thigh muscle of each mouse. One and a half hours post infection mice were treated IV with test compounds in doses ranging from 0.3 to 30 mg/kg or 0.3 to 20 mg/kg. Four mice were treated with each drug concentration. Twenty-four hours post treatment, mice were euthanized by CO2 inhalation. The right thighs of the mice were aseptically removed, weighed, homogenized, serially diluted, and plated on TSA medium. The plates were incubated overnight at 37° C. in 5% CO2. Colony forming units per gram of thigh was calculated by enumerating the plated colonies then adjusting for serial dilutions and the weight of the thigh.

[4] = tested on: Uropathogenic E. coli EC200; test: Murine kidney infection model, uropathogenic E. coli EC200; settings: Escherichia coli, po, 36 h, BALB/c mice, read-out: EC200 UTI PO, log10 reduction in CFUs in the kidney versus untreated controls
Experimental: Kidney Infection Models for Uropathogenic E. coli EC200 and K. pneumoniae ESBL Isolate KP453
Compounds were tested in a BALB/c murine kidney infection model challenged with tetracycline-resistant E. coli strain uropathogenic […] via intravenous injection. […] For IV administration test compound was dosed at 3 mg/kg. Thirty-six hours following initiation of treatment, mice were euthanized and bacterial reduction in the kidney was quantified by plating kidney homogenates. Results are reported in Table D as log10 reduction in colony forming units (CFUs) in the kidney versus untreated controls (receiving no test compound).

[5] = IV, read-out: SA Smith septicemia PD50 IV
[6] = PO, read-out: SA Smith septicemia PD50 PO
[7] = IV 1 mg/kg, read-out: AUC, IV Rat PK
[8] = oral gavage 10 mg/kg, read-out: AUC, Oral Rat PK

SMILES | responders at 3 mg/kg [1] [%] | responders at 30 mg/kg [1] [%] | ED50 [1, 5] [mg/kg] | ED50 [1, 6] [mg/kg] | clearance ([2]; IV 1 mg/kg) [mL/min/kg] | bioavailability [2] [%] | AUC [2, 7] [ng·h/mL] | Cmax ([2]; IV 1 mg/kg) [ng/mL] | AUC [2, 8] [ng·h/mL] | log10 REDUCTION in colony forming units versus untreated control group (thigh) [3] [log10] | 12 h urine, IV Rat PK ([2]; IV 1 mg/kg, urine, 12 h) [h urine 11 ug/mL] | log reduction at 2 mg/kg ([4]; PO 2 mg/kg at 12 and 24 hours post infection) | log reduction at 3 mg/kg ([4]; PO @ 3 mpk)
CC(C)CNCc1cc(O)c2c(c1F)C[C@H]1C[C@H]3[C@H](N(C)C)C(O)=C(C(N)=O)C(=O)[C@@]3(O)C(O)=C1C2=O [Compound S2-4-14] | 100 | 100 | 0.84 | 12.2 | 3.88 | 13.7 | 4430 | 667 | 6160 | 3.68 |  |  | 
CN(C)[C@@H]1C(O)=C(C(N)=O)C(=O)[C@@]2(O)C(O)=C3C(=O)c4c(O)cc(CN(C)C(C)(C)C)c(F)c4C[C@H]3C[C@@H]12 [Compound S2-4-25] | 100 | 100 | 0.35 | 1.4 | 19.4 | 9.1 | 838 | 214 | 826 | 4.1 | 12 | 2.78 | 3.63
